These results are taken from US20090274773A1, “ANTIPROLIFERATIVE COMBINATION COMPRISING CYC-682 AND A CYTOTOXIC AGENT” (Cyclacel Limited, priority 2005, published 2009).

Molecules are shown by their SMILES. A value given as a limit tells only on which side of the number the result lay.

What all share (assay): MTT growth inhibition assay, single agent
Format in all cases: cell-based, human
A general note: Tetrazolium assays rely on reduction of a dye to a coloured formazan, in cell work by metabolically active cells.

One experiment relates to COLO205. Conditions: Homo sapiens, COLO 205, 24 hours exposure, read-out: Antiproliferative effects IC50s (MTT assay). The method, then:
(§1) All cell lines were obtained from the ATCC (Rockville, Md.). Cells were grown as monolayers in RPMI medium supplemented with 10% fetal calf serum (Invitrogen, Cergy-Pontoise, France), 2 mM glutamine, 100 units/ml penicillin and 100 μg/ml streptomycin. All cells were split twice a week using trypsin/EDTA (0.25% and 0.02%, respectively; Invitrogen, Cergy-Pontoise, France) and seeded at a concentration of 2.5×10^4 cells/ml. All cell lines were tested regularly for Mycoplasma contamination by PCR using a Stratagene kit (La Jolla, Calif.).
(§2) The MTT assay was carried out as described previously (Hansen M B, Nielsen S E, Berg K. Re-examination and further development of a precise and rapid dye method for measuring cell growth/cell kill. J Immunol Methods. 1989 May 12; 119(2):203-10). In brief, cells were seeded in 96-well tissue culture plates at a density of 2×10^3 cells/well. Cell viability was determined after a 120-hour incubation, by the calorimetric conversion of yellow, water-soluble tetrazolium MTT (3-[4,5-dimethylthiazol-2-yl]-2,5-diphenyltetrazolium bromide; Sigma, Saint-Quentin Fallavier, France), into purple, water-insoluble formazan. This reaction is catalyzed by mitochondrial dehydrogenases and is used to estimate the relative number of viable cells (Mosmann, T, Rapid calorimetric assay for cellular growth and survival: application to proliferation and cytotoxicity assays. J Immunol Methods. 1983 Dec. 16; 65 (1-2):55-63). Cells were incubated with 0.4 mg/ml MTT for 4 hours at 37° C. After incubation, the supernatant was discarded, the cell pellet was resuspended in 0.1 ml of DMSO and the absorbance was measured at 560 nm using a microplate reader (Dynatech, Michigan). Wells with untreated cells or with drug-containing medium without cells were used as positive and negative controls, respectively. Growth inhibition curves were plotted as a percentage of untreated control cells.
(§3) The cells were seeded at 2×10^3 cells/well in 96-well plates and treated 24 hours later with increasing concentrations of CYC682. After incubation times of 1 hour, 24 hours or 48 hours, the cells were washed and post-incubated in drug-free medium for 72 hours. Growth inhibition was then determined by the MTT assay.

The subject of the next experiment is HCT116. Conditions: Homo sapiens, HCT-116, 24 hours exposure, read-out: Antiproliferative effects IC50s (MTT assay). The procedure: as §1, §2, §3
A further experiment concerns MDA-MB-435. The following applies: Homo sapiens, 24 hours exposure, read-out: Antiproliferative effects IC50s (MTT assay). The procedure: as §1, §2, §3
A further experiment has as its system HT29. Conditions: Homo sapiens, HT-29, 24 hours exposure, read-out: Antiproliferative effects IC50s (MTT assay). The method, then:
as §1, §2, §3

The subject of the next experiment is IGROV1. Conditions: Homo sapiens, IGROV-1, 24 hours exposure, read-out: Antiproliferative effects IC50s (MTT assay). The procedure: as §1, §2, §3
Another experiment relates to HCC2998. Conditions: Homo sapiens, HCC 2998, 24 hours exposure, read-out: Antiproliferative effects IC50s (MTT assay). The method, then: as §1, §2, §3
Another experiment has as its system OVCAR1. The following applies: Homo sapiens, 24 hours exposure, read-out: Antiproliferative effects IC50s (MTT assay). The method, then: as §1, §2, §3
The next experiment relates to HOP62. The following applies: Homo sapiens, HOP-62, 24 hours exposure, read-out: Antiproliferative effects IC50s (MTT assay). The method, then: as §1, §2, §3
For a further experiment, the system named is HOP92. The following applies: Homo sapiens, HOP-92, 24 hours exposure, read-out: Antiproliferative effects IC50s (MTT assay). The procedure: as §1, §2, §3
Another experiment deals with MCF7. The following applies: Homo sapiens, 24 hours exposure, read-out: Antiproliferative effects IC50s (MTT assay). The procedure:
as §1, §2, §3

On to `O=c1[nH]cc(F)c(=O)[nH]1` [5-FU, 5-fluorouracil], for which the IC50 is 240 ± 20 µM in the experiment on COLO205; 5.3 ± 1.3 µM with HCT116; 10 ± 2 µM with MDA-MB-435; 24 ± 1 µM with HT29; 29 ± 1 µM with IGROV1; 10 ± 1 µM in the experiment on HCC2998. Besides, the IC50 stood at 24 ± 1 µM in the experiment with OVCAR1, 118 ± 32 µM in the experiment with HOP62, 11 ± 1 µM in the experiment with HOP92 and 10 ± 1 µM with MCF7.

On to `Nc1ccn([C@@H]2O[C@H](CO)[C@H](O)[C@@H]2O)c(=O)n1` [Ara-C, 4-amino-1-[(2R,3S,4R,5R)-3,4-dihydroxy-5-(hydroxymethyl)oxolan-2-yl]pyrimidin-2-one], for which the IC50 in the experiment on COLO205 turned out to be 28 ± 8 µM; in the experiment on HCT116, 1.2 ± 0.4 µM; in the experiment on MDA-MB-435, 38 ± 9 µM; in the experiment with HT29, 130 ± 40 µM; in the experiment on IGROV1, 89 ± 21 µM; in the experiment on HCC2998 it was 3.7 ± 0.5 µM. Also, the IC50 in the experiment with OVCAR1 is over 300 µM; in the experiment on HOP62, 6.3 ± 2.8 µM; with HOP92, 1.3 ± 0.3 µM; with MCF7 it was over 300 µM.
